Paper PMC9115314 (Biochemistry and Biophysics Reports, 2022)

target: h2E2 humanized anti-cocaine mAb; assay: differential scanning fluorimetry; assay type: binding, Homo sapiens; settings: read-out: Avg Kd (nM) ± Std. Dev. (fold increase vs unmodified h2E2 mAb)

| SMILES | Kd |
| --- | --- |
| COC(=O)[C@H]1[C@@H](OC(=O)c2ccccc2)C[C@@H]2CC[C@H]1N2C [Coc, cocaine] | 53 ± 6.8 nM |
| CN1[C@H]2CC[C@@H]1[C@@H](C(=O)O)[C@@H](OC(=O)c1ccccc1)C2 [BE, benzoylecgonine] | 177 ± 14 nM |
| CCOC(=O)[C@H]1[C@@H](OC(=O)c2ccccc2)C[C@@H]2CC[C@H]1N2C [CE, cocaethylene] | 20.7 ± 4.1 nM |
